Measured values published in the OPERA property sets (Mansouri et al. 2018).

Structure (SMILES) | melting point [°C] | boiling point [°C] | log10 vapour pressure (mmHg) | ready biodegradability | log10 Koa | log10 Henry constant (atm·m³/mol) | log10 Koc (L/kg)
NCC[C@H](O)C(=O)N[C@@H]1C[C@H](N)[C@@H](O[C@H]2O[C@H](CN)[C@@H](O)[C@H](O)[C@H]2O)[C@H](O)[C@H]1O[C@H]1O[C@H](CO)[C@@H](O)[C@H](N)[C@H]1O | 204 | – | – | – | – | – | –
Clc1ccccc1I | 0.7 | 234 | – | – | – | – | –
CC(C(=O)O)c1ccc2c(c1)[nH]c1ccc(Cl)cc12 (configuration not stated) | 198 | – | – | – | – | – | –
Cc1cc2c(cc1C)CCCC2 | 10 | 252 | – | – | – | – | –
FC(F)(F)c1nc(C(F)(F)F)nc(C(F)(F)F)n1 | -24.8 | 95.5 | – | – | – | – | –
COC(=O)c1ccc(C(=O)OC)cc1 | 141 | 288 | -2 | readily biodegradable | – | – | –
O=C(O)C=Cc1ccccc1 | – | – | – | readily biodegradable | – | – | –
O=C(Oc1ccccc1)Oc1ccccc1 | 83 | 306 | -3.82 | – | – | – | –
CC(Cl)C(=O)CCl (configuration not stated) | – | 166 | – | – | – | – | –
Cc1ccccc1NC(=S)Nc1ccccc1C | 158 | – | – | – | – | – | –
CCCCCCCCCCCCCCCCCC(=O)OC(C)C | 28 | – | -4.4 | – | – | – | –
O=C(O)c1nc[nH]c1C(=O)O | 288 | – | – | – | – | – | –
Cc1c2ccccc2cc2ccc3ccccc3c12 | 138 | – | – | – | – | – | –
CNC(=O)C(C)SCCSP(=O)(OC)OC (configuration not stated) | 43 | – | – | – | – | – | –
O=C(O)c1ccc(C(F)(F)F)cc1 | 220 | – | – | – | – | – | –
CCC1(C2=CCCCCC2)C(=O)NC(=O)NC1=O | 174 | – | – | – | – | – | –
CC | -183 | -88.6 | 4.5 | – | 0.42 | – | –
CCCCCCCCCCCC(C)O (configuration not stated) | 23 | – | – | – | – | – | –
Cl.NCCc1ccc(O)cc1 | 272 | – | – | – | – | – | –
C1CCN2C[C@@H]3C[C@@H](CN4CCCC[C@@H]34)[C@H]2C1 | 30.5 | 325 | – | – | – | – | –
CCc1cccc2ccccc12 | -13.9 | 259 | -1.6 | – | – | -3.16 | 3.78
BrC1CCC(Br)C(Br)CCC(Br)C(Br)CCC1Br (configuration not stated) | – | – | -6.33 | not readily biodegradable | – | – | –

Structure (SMILES) | melting point [°C] | boiling point [°C] | log10 vapour pressure (mmHg) | ready biodegradability | log10 Koa | log10 Henry constant (atm·m³/mol) | log10 Koc (L/kg)
CC(=O)[C@@]12O[C@](C)(c3ccccc3)O[C@@H]1C[C@H]1[C@@H]3CCC4=CC(=O)CC[C@]4(C)[C@H]3CC[C@@]12C | 150 | – | – | – | – | – | –
OCCN1CCOCC1 | -1.6 | 227 | – | readily biodegradable | – | – | –
CC(Cl)(Cl)C(=O)Cl | – | 118 | – | – | – | – | –
Clc1ccccc1Br | -12.3 | 204 | – | – | – | – | –
C[N+](C)(C)CCOC(=O)CCC(=O)OCC[N+](C)(C)C.[Cl-].[Cl-] | 190 | – | – | – | – | – | –
Cc1cc(N)c2ncccc2c1 | 73 | – | – | – | – | – | –
COc1ccc(Cn2cncn2)cc1 | 41.5 | – | – | – | – | – | –
CCCCCCCCSCCO | 0 | – | -3.23 | – | – | – | –
Nc1ccc(S(=O)(=O)c2ccc(NCC(=O)O)cc2)cc1 | 194 | – | – | – | – | – | –
Clc1cccc(Br)c1Cl | 60 | 245 | – | – | – | – | –
COc1cc(O)c(C(C)=O)c(OC)c1 | 82 | – | – | – | – | – | –
CCCCOCCOC(C)=O | -63 | 192 | -0.426 | – | – | -5.26 | –
CC(=O)c1ccc(Br)cc1 | 50.5 | 257 | – | – | – | – | –
C#CCCCCCCCCCCCCCC | 15 | 284 | – | – | – | – | –
S=C=Nc1cccc2ccccc12 | 58 | – | – | – | – | – | –
CC(C(O)c1ccc(O)cc1)N1CCC(Cc2ccccc2)CC1 (configuration not stated) | 114 | – | – | – | – | – | –
Clc1ccc(Cl)c2ncccc12 | 97.5 | – | – | – | – | – | –
CCC(Br)(CC)C(=O)NC(N)=O | 118 | – | – | – | – | – | –
Oc1cc(Cl)c(Cl)cc1Cl | 69 | 247 | -2.12 | not readily biodegradable | – | – | 3.36
CCOc1ccc([N+](=O)[O-])cc1N | 96.5 | – | – | – | – | – | –
C=C1C2CCC(C2)C1(C)C (configuration not stated) | 51.6 | 160 | 0.399 | not readily biodegradable | – | – | –
CCCCCCCCCCCCCCCCCBr | 32 | 349 | -4.74 | – | – | – | –

Structure (SMILES) | melting point [°C] | boiling point [°C] | log10 vapour pressure (mmHg) | ready biodegradability | log10 Koa | log10 Henry constant (atm·m³/mol) | log10 Koc (L/kg)
CC(C)CCO[N+](=O)[O-] | – | 146 | 0.71 | – | – | -2.59 | –
Cc1cccc(NC(=O)c2ccccc2C(=O)O)c1 | 150 | – | – | – | – | – | –
COc1cc2c3c(c4ccc(OC)c(OC)c4c2cc1OC)CN1CCC[C@H]1C3 | 220 | – | – | – | – | – | –
CC(CCl)OC(C)CCl (configuration not stated) | -97 | 187 | -0.252 | not readily biodegradable | – | – | 1.67
COc1cc2c(c3oc(=O)c4c(c13)CCOC4=O)C1C=COC1O2 (configuration not stated) | 245 | – | – | – | – | – | –
Fc1cc(F)nc(F)n1 | – | 98 | – | – | – | – | –
CC(=O)OCC(=O)[C@@]1(O)CC[C@H]2[C@@H]3C[C@H](C)C4=CC(=O)C=C[C@]4(C)[C@H]3[C@@H](O)C[C@@]21C | 206 | – | – | – | – | – | –
N#Cc1ccc(C#N)cc1 | 224 | – | – | not readily biodegradable | – | – | –
C[C@]1(C(=O)O)CCC[C@]2(C)c3cc(O)ccc3CC[C@@H]12 | 194 | – | – | – | – | – | –
CCCCCCCCCCCCSP(SCCCCCCCCCCCC)SCCCCCCCCCCCC | – | – | – | not readily biodegradable | – | – | –
CC1=C(C)CCC1 | -90.4 | 106 | – | – | – | – | –
CC(C)CCC[C@@H](C)[C@H]1CC[C@H]2[C@@H]3CC=C4C[C@@H](OC(=O)Cc5ccc(N(CCCl)CCCl)cc5)CC[C@]4(C)[C@H]3CC[C@]12C | 90 | – | – | – | – | – | –
CP(=O)(O)CCC(N)C(=O)O (configuration not stated) | – | – | – | readily biodegradable | – | – | 2.63
CC(=O)[C@@]1(O)CC[C@H]2[C@@H]3CCC4=CC(=O)CC[C@]4(C)[C@H]3CC[C@@]21C | 222 | – | – | – | – | – | –
CC(Cl)C(Cl)(Cl)Cl (configuration not stated) | -64 | 152 | – | – | – | – | –
CCCCCOC(=O)Nc1ccccc1 | – | – | – | – | – | – | 2.61
O=[N+]([O-])c1ccc(O)c([N+](=O)[O-])c1 | 116 | – | -3.41 | not readily biodegradable | – | -7.07 | –
Cl[C@H]1[C@H](Cl)[C@@H](Cl)[C@H](Cl)[C@@H](Cl)[C@H]1Cl (racemic) | – | – | – | not readily biodegradable | – | – | –
N#Cc1ccccc1OCC(O)CNCCNC(=O)Cc1ccc(O)cc1 (configuration not stated) | 119 | – | – | – | – | – | –
O=C(OCC1CCC2OC2C1)C1CCC2OC2C1 (configuration not stated) | -37 | – | – | – | – | – | –
O=C(Nc1ccccc1)N(Cc1ccc(Cl)cc1)C1CCCC1 | 130 | – | -11.4 | – | – | -11.3 | –
